Data published in patent US20110313006A1, “PHARMACEUTICAL COMPOSITION OF LEVAMLODIPINE OR PHARMACEUTICALLY ACCEPTABLE SALT THEREOF AND β RECEPTOR BLOCKING AGENT, AND USE THEREOF” (SHIHUIDA PHARMACEUTICALS GROUP (JILIN) LTD, priority 2010, published 2011).

System: SHR rats having spontaneous hypertension
Assay: Antihypertension test in rat (systolic pressure at the tail artery, tail volume method)
Type: in vivo
Conditions: for Anti-hypertensive effect compared with the model group / Blood pressure (systolic pressure at the tail artery), before administration: intragastric; for Anti-hypertensive effect compared with the model group: versus model group (0.9% saline); for Blood pressure (systolic pressure at the tail artery), 2 weeks after administration: end of week 2; for Blood pressure (systolic pressure at the tail artery), 3 weeks after administration: end of week 3; for Blood pressure (systolic pressure at the tail artery), 4 weeks after administration: end of week 4; for Blood pressure (systolic pressure at the tail artery), before administration: baseline before administration, mean ± spread
Description: Experiment method: 120 SHR rats having spontaneous hypertension (female:male 1:2, weighted 200-240 g) were equally divided into 12 groups according to the level of hypertension (the specific grouping method is as shown in Table 1), and intragastrically administrated with the medicine. For the blood pressure of the rat, the systolic pressure at the tail artery of the rat when being wake and quiet was indirectly measured by an electronic blood pressure meter through tail volume method respectively before administration, and at the end of 1, 2, 3, and 4 weeks after administration.

[1] = SHR rats, intragastric daily, n = 10, end of week 1, dose per group in Table 1
[2] = SHR rats, intragastric daily, n = 10, dose per group in Table 1
[3] = SHR rats, n = 10, dose per group in Table 1

Compound	Anti-hypertensive effect compared with the model group (SHR rats)	Blood pressure (systolic pressure at the tail artery), 1 week after administration [1] [Kpa]	Blood pressure (systolic pressure at the tail artery), 2 weeks after administration [2] [KPa]	Blood pressure (systolic pressure at the tail artery), 3 weeks after administration [2] [KPa]	Blood pressure (systolic pressure at the tail artery), 4 weeks after administration [2] [KPa]	Blood pressure (systolic pressure at the tail artery), before administration [3] [KPa]	Blood pressure (systolic pressure at the tail artery), 1 week after administration (po, 168 h) [Kpa]
Levamlodipine benzenesulfonate [Single medicine group 1]	significant anti-hypertensive effect						
CC(C)NCC(O)COc1ccc(COCCOC(C)C)cc1 (stereo not shown) [Single medicine group 3, Bisoprolol]	significant anti-hypertensive effect	27.34 ± 1.41	26.14 ± 1.19	25.82 ± 1.20	25.58 ± 1.24	27.52 ± 1.46	
OC(CNCC(O)C1CCc2cc(F)ccc2O1)C1CCc2cc(F)ccc2O1 (stereo not shown) [Single medicine group 2, Nebivolol]	significant anti-hypertensive effect	27.28 ± 1.48	25.94 ± 1.68	25.57 ± 1.61	25.29 ± 1.49	27.42 ± 1.50	
CC(C)(C)NCC(O)COc1cccc2c1CC(O)C(O)C2 (stereo not shown) [Single medicine group 6, Nadolol]	significant anti-hypertensive effect	27.30 ± 1.56	26.01 ± 1.42	25.62 ± 1.47		27.51 ± 1.53	
CC(C)NCC(O)COc1ccc(CCOCC2CC2)cc1 (stereo not shown) [Single medicine group 4, Betaxolol]	significant anti-hypertensive effect		25.99 ± 1.39	25.62 ± 1.46		27.45 ± 1.07	27.20 ± 1.10
CCN(CC)C(=O)Nc1ccc(OCC(O)CNC(C)(C)C)c(C(C)=O)c1 (stereo not shown) [Single medicine group 5, Celiprolol]	significant anti-hypertensive effect	27.41 ± 1.30		25.83 ± 1.92	25.60 ± 2.05	27.56 ± 1.23	
